# Patent US6303618A, “Cyclin dependent kinase inhibiting purine derivatives” (priority 1997, dated 2001)
# Where “and” joins values, the source holds several entries; their conditions need not be identical. Equal values may be shown once. Read-outs that look alike come from different tables or passages of the source.
# How the values were obtained:
# CDK1 (p34 cdc2)/cyclin B = assay: CDK inhibition assay (histone H1 kinase), CDK1; assay type: biochemical, starfish (Marthasterias glacialis); conditions: for IC50: CDK1, Table 1
# Description: (§1) By way of example, however, a typical protocol is summarised below.
# Histone H1 (type III-S (Sigma) 4° C.) 5 mg/ml in buffer C.
# [^32 P]ATP […]: Make up using (multiples of) the following proportions:
# DMSO cannot exceed 1% in the assay mixture. Inhibitors are added at 1/10 final assay volume and 10×final strength. DMSO stocks must therefore be diluted to 10×final desired concentration in ≤10% DMSO, ≥90% buffer C.
# Start reaction in each tube at 30 second intervals by adding
# […] [^32 P]ATP vortexing and placing in rack in waterbath at 30° C.
# Terminate reaction after 10 min at 30 second intervals in tubes in same order by removing
# […] reaction mix and spotting onto appropriately labelled filter, allowing to dry for 20-30 seconds and transferring to stirring 1% phosphoric acid.
# Blank incubation is performed as above but without histone (add […] buffer C instead) Washing blank is […] ATP added directly to filter.
# CDK4 [1] = biological target: T1, CDK4 (Homo sapiens, UniProt P11802); assay: CDK inhibition assay, CDK4; assay type: biochemical; conditions: Table 1
# Source text: (§2) Apart from reference compounds, the compounds listed are accompanied by an NU reference or identification code number.
# as §1
# CDK2 = CDK2 (Homo sapiens, UniProt P24941); assay: CDK inhibition assay, CDK2; assay type: biochemical; conditions: for IC50: Table 1; for inhibition at 100 µM: read-out: % inhibition CDK2, at 100 μM
# Source text: as §2, §1
# [2] = Insolubility noted in the CDK assay
# CDK = conditions: in words; cited from earlier work
# CDK4 [3] = biological target: T1, CDK4; conditions: in words; cited from earlier work
# Cytotoxicity = assay type: cell-based
# [4] = tested on: O^6 -methylguanine DNA-methyltransferase (MGMT)
# [5] = tested on: many common kinases other than CDK's; conditions: in words; cited from earlier work
# CDK6 = conditions: in words; cited from earlier work
# [6] = read-out: % inhibition CDK2, at 10 μM
# [7] = at 10 μM, read-out: % inhibition CDK2
# T1 sequence (P11802 whole entry, species assumed): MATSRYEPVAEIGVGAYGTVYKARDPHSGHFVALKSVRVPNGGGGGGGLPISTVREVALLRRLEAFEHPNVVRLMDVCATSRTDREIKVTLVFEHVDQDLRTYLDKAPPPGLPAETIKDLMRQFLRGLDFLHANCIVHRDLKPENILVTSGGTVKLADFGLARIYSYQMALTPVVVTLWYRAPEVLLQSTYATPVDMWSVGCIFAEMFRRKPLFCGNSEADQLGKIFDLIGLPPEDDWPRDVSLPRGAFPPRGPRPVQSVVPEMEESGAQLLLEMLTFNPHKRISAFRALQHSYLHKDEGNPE
# T1 sequence (P24385 whole entry partner, species assumed): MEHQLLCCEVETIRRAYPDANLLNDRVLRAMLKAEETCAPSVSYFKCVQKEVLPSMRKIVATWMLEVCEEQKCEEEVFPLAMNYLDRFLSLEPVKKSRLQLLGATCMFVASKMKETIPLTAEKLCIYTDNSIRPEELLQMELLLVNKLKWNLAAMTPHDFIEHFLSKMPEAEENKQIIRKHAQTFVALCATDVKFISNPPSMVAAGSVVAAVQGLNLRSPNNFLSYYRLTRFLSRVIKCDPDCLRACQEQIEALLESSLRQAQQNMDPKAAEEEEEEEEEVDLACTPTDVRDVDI
compound,measurement,setting,value
"CC(C)CCOc1nc(N)nc2nc[nH]c12 [NU2053, O^6-(3'-Methyl)butylguanine]",IC50,CDK1 (p34 cdc2)/cyclin B,18 µM
same,IC50,"CDK4 [1]; CDK4, read-out: IC50 CDK4",70 µM
"Nc1nc(OCC2CCCO2)c2nc[nH]c2n1 (stereo not drawn) [NU6013, 2-amino-6-(2-tetrahydro-furanyl)-methyloxypurine]",% inhibition CDK1,CDK1 (p34 cdc2)/cyclin B; at 100 μM,48 ± 7%
same,IC50,"CDK2; CDK2, read-out: IC50 CDK2",> 500 µM
same,inhibition at 100 µM,CDK2,39 ± 5%
same,IC50,"CDK4 [1]; CDK4, read-out: IC50 CDK4",261 µM
"Nc1cc(OCC2CCCCC2)nc(N)n1 [NU6034, 2,6-diamino-4(cyclohexylmethoxy)-pyrimidine]",inhibition at 10 µM,CDK2; [6],7 ± 3%
same,insolubility in CDK2 assay,[2]; at 100 μM,Insol
"Nc1nc(N)c(N=O)c(OCC2CCCCC2)n1 [NU6027, 2,6-diamino-4-cyclohexyl-methyloxy-5-nitroso-pyrimidine]",insolubility in CDK2 assay,[2]; at 100 μM,Insol
"Nc1nc(OCc2cccc3ccccc23)c2nc[nH]c2n1 [NU6020, 2-amino-6-(1-naphthyl)-methyloxypurine]",% inhibition CDK1,CDK1 (p34 cdc2)/cyclin B; at 10 μM,10 ± 4%
same,inhibition at 10 µM,CDK2; [6],3 ± 4%
same,IC50,"CDK4 [1]; CDK4, read-out: IC50 CDK4",> 100 µM
same,insolubility in CDK2 assay,[2]; at 100 μM,Insol
"CN(C)c1nc(OCC2CCCCC2)c2nc[nH]c2n1 [NU6048, 2-dimethylamino-6-cyclohexyl methoxypurine]",% inhibition CDK1,CDK1 (p34 cdc2)/cyclin B; at 10 μM,27 ± 6%
same,inhibition at 10 µM,CDK2; [7],31 ± 3%
same,insolubility in CDK1 assay,[2]; at 100 μM,Insol
same,insolubility in CDK2 assay,[2]; at 100 μM,Insol
"Nc1nc(OCc2ccc3ccccc3c2)c2nc[nH]c2n1 [NU6018, 2-amino-6-(2-naphthyl)-methyloxypurine]",% inhibition CDK1,CDK1 (p34 cdc2)/cyclin B; at 10 μM,12 ± 4%
same,inhibition at 10 µM,CDK2; [6],9 ± 9%
same,IC50,"CDK4 [1]; CDK4, read-out: IC50 CDK4",> 100 µM
same,insolubility in CDK2 assay,[2]; at 100 μM,Insol
Nc1nc(N)c(N=Nc2ccc(Cl)cc2)c(OCC2CCCCC2)n1 [NU6037],% inhibition CDK1,CDK1 (p34 cdc2)/cyclin B; at 10 μM,3 ± 3%
same,inhibition at 10 µM,CDK2; [7],6 ± 4%
same,insolubility in CDK2 assay,[2]; at 100 μM,Insol
"CO[C@@H]1O[C@H](COc2nc(N)nc3[nH]cnc23)[C@H]2OC(C)(C)O[C@@H]12 [NU6012, O^6 -Ribofuranosylguanine]",% inhibition CDK1,CDK1 (p34 cdc2)/cyclin B; at 100 μM,32%
same,inhibition at 100 µM,CDK2,16 ± 5%
same,IC50,"CDK4 [1]; CDK4, read-out: IC50 CDK4",> 100 µM
"CC[C@H](CO)Nc1nc(NCc2ccccc2)c2ncn(C(C)C)c2n1 [roscovitine, 6-(benzylamino)-2(R)-[{1-(hydroxy-methyl)propyl}amino]-9-isopropylpurine]",mode of inhibition,CDK,competitive inhibitors for ATP binding
same,activity against CDK4,CDK4 [3],neither has been found to be active
"Nc1nc(OCC2CCCC2)c2nc[nH]c2n1 [NU2068, O^6 -(Cyclopentyl)methylguanine]",IC50,CDK1 (p34 cdc2)/cyclin B,30 µM
same,IC50,"CDK4 [1]; CDK4, read-out: IC50 CDK4",34 µM
"Nc1nc(OCCC2CCCCC2)c2[nH]cnc2n1 [NU6023, 2-amino-6-cyclohexylethyloxypurine]",% inhibition CDK1,CDK1 (p34 cdc2)/cyclin B; at 100 μM,68 ± 6%
same,IC50,"CDK2; CDK2, read-out: IC50 CDK2",47.6 µM
same,inhibition at 100 µM,CDK2,58 ± 6%
same,IC50,"CDK4 [1]; CDK4, read-out: IC50 CDK4",69 µM
CC1(C)O[C@H]2[C@@H](O1)[C@@H](COc1nc(N)nc3[nH]cnc13)O[C@@H]1OC(C)(C)O[C@@H]12 [NU6017],% inhibition CDK1,CDK1 (p34 cdc2)/cyclin B; at 100 μM,10 ± 6%
same,inhibition at 100 µM,CDK2,3 ± 7%
same,IC50,"CDK4 [1]; CDK4, read-out: IC50 CDK4",> 100 µM
"Nc1nc(OC[C@H]2CCC(=O)N2)c2nc[nH]c2n1 [NU6032, 2-amino-6-[(R)-2'-oxopyrrolidin-5'-methyl]oxypurine]",% inhibition CDK1,CDK1 (p34 cdc2)/cyclin B; at 100 μM,54 ± 2%
same,IC50,"CDK2; CDK2, read-out: IC50 CDK2",123 µM
same,inhibition at 100 µM,CDK2,37 ± 2%
same,IC50,"CDK4 [1]; CDK4, read-out: IC50 CDK4",> 1000 µM
Nc1nc(N)c(N=O)c(OCC2CC=CCC2)n1 (stereo not drawn) [NU6045],% inhibition CDK1,CDK1 (p34 cdc2)/cyclin B; at 10 μM,73 ± 3%
same,IC50,"CDK2; CDK2, read-out: IC50 CDK2",6.1 µM
same,inhibition at 10 µM,CDK2; [6],70 ± 1%
same,insolubility in CDK2 assay,[2]; at 100 μM,Insol
"Nc1nc(OCC23CC4CC(CC(C4)C2)C3)c2[nH]cnc2n1 [NU6014, 2-amino-6-adamantyl-methyloxypurine]",inhibition at 10 µM,CDK2; [6],20 ± 4%
same,IC50,"CDK4 [1]; CDK4, read-out: IC50 CDK4",> 100 µM
same,insolubility in CDK2 assay,[2]; at 100 μM,Insol
"Nc1nc(OCc2ccccc2)c2[nH]cnc2n1 [NU2005, 2-amino-6-benzyloxypurine]",IC50,CDK1 (p34 cdc2)/cyclin B,35 µM
same,IC50,"CDK2; IC50 CDK2, CDK2",28.6 µM
same,inhibition at 100 µM,CDK2,64 ± 3%
same,IC50,"CDK4 [1]; CDK4, read-out: IC50 CDK4",100 µM
"Nc1nc(OC[C@@H]2CCC(=O)N2)c2nc[nH]c2n1 [NU6031, 2-amino-6-[(S)-2'-oxopyrrolidin-5'-methyl]oxypurine]",% inhibition CDK1,CDK1 (p34 cdc2)/cyclin B; at 100 μM,26 ± 3%
same,IC50,"CDK2; CDK2, read-out: IC50 CDK2",314 µM
same,inhibition at 100 µM,CDK2,20 ± 2%
same,IC50,"CDK4 [1]; CDK4, read-out: IC50 CDK4",> 1000 µM
"Nc1nc(OCC2CCCCC2)c2nc[nH]c2n1 [NU2058, O^6 -Cyclohexylmethylguanine]",inhibitory activity against CDK1(cdc2)/cyclin B complexes,"CDK1 (p34 cdc2)/cyclin B; in words, compared with olomoucine","very high inhibitory activity, comparable to that of olomoucine"
same,IC50,"CDK4 [1]; IC50 CDK4, CDK4",38 µM
same,cytotoxicity,Cytotoxicity,cytotoxic
same,activity as MGMT inhibitor,[4],very little activity
"Nc1nc(OCC2CCCCC2)c2[nH]c(=O)[nH]c2n1 [NU6033, 2-Amino-6-cyclohexylmethyloxy-8-oxopurine]",insolubility in CDK1 assay,[2]; at 10 μM,insol.
"C=CCOc1nc(N)nc2nc[nH]c12 [NU2028, 2-amino-6-allyloxypurine]",IC50,CDK1 (p34 cdc2)/cyclin B,50 µM
same,IC50,"CDK4 [1]; CDK4, read-out: IC50 CDK4",> 100 µM
"CC(C)C(=O)COc1nc(N)nc2nc[nH]c12 [NU2056, O^6-(3-Methyl-2-oxobutyl)guanine]",IC50,CDK1 (p34 cdc2)/cyclin B,22 µM
same,inhibition at 100 µM,CDK2,33 ± 2%
same,IC50,"CDK4 [1]; CDK4, read-out: IC50 CDK4",122 µM
"Nc1nc(N)c(N)c(OCC2CCCCC2)n1 [NU6035, 2,5,6-triamino-4(cyclohexylmethoxy)-pyrimidine]",% inhibition CDK1,CDK1 (p34 cdc2)/cyclin B; at 100 μM,40 ± 4%
same,inhibition at 100 µM,CDK2,54 ± 8%
"Nc1nc(OCC2COc3ccccc3O2)c2nc[nH]c2n1 (stereo not drawn) [NU6026, 2-amino-6-[1',4'-benzodioxanyl-2'-methyl]oxypurine]",% inhibition CDK2,CDK2; at 10 μM,9%
same,inhibition at 10 µM,CDK2; [6],12%
same,inhibition at 100 µM,CDK2,96%
same,IC50,"CDK4 [1]; CDK4, read-out: IC50 CDK4",> 100 µM
"Cn1cnc2c(NCc3ccccc3)nc(NCCO)nc21 [Olomoucine, 2-(2-hydroxyethylamino)-6-benzylamino-9-methyl-purine]",inhibitory activity in relation to many common kinases other than CDK's,[5],total lack of inhibitory activity
same,mode of inhibition,CDK,competitive inhibitors for ATP binding
same,activity against CDK6,CDK6,neither has been found to be active
"Clc1nc(OCC2CCCCC2)c2[nH]cnc2n1 [NU6047, 2-chloro-6-cyclohexylmethoxypurine]",% inhibition CDK1,CDK1 (p34 cdc2)/cyclin B; at 10 μM,6 ± 4%
same,inhibition at 10 µM,CDK2; [6],5 ± 3%
same,insolubility in CDK1 assay,[2]; at 100 μM,Insol
same,insolubility in CDK2 assay,[2]; at 100 μM,Insol
"Nc1nc(OCC2CCCCO2)c2nc[nH]c2n1 (stereo not drawn) [NU6019, 2-amino-6-(2-tetrahydropyranyl)-methyloxypurine]",% inhibition CDK1,CDK1 (p34 cdc2)/cyclin B; at 100 μM,51 ± 4%
same,inhibition at 100 µM,CDK2,44 ± 2%
same,IC50,"CDK4 [1]; CDK4, read-out: IC50 CDK4",> 100 µM
C=C(C)[C@@H]1CC=C(COc2nc(N)nc3[nH]cnc23)CC1 [NU2077],IC50,CDK1 (p34 cdc2)/cyclin B,22 µM
same,inhibition at 10 µM,CDK2; [6],16 ± 26%
same,inhibition at 25 µM,"CDK2; read-out: % inhibition CDK2, at 25 μM",54%
same,IC50,"CDK4 [1]; CDK4, read-out: IC50 CDK4",> 100 µM
same,insolubility in CDK2 assay,[2]; at 100 μM,insol
"Nc1nc(OCC2CC=CCC2)c2nc[nH]c2n1 (stereo not drawn) [NU2073, O^6-(3'-Cyclohexenyl)methylguanine]",IC50,CDK1 (p34 cdc2)/cyclin B,3.2 µM
same,IC50,"CDK2; CDK2, read-out: IC50 CDK2",98 µM and 18.8 µM
same,inhibition at 100 µM,CDK2,87 ± 1%
same,IC50,"CDK4 [1]; CDK4, read-out: IC50 CDK4",53 µM
"C=C(COc1nc(N)nc2[nH]cnc12)c1ccccc1 [NU2042, O^6-(2-Phenylallyl)guanine]",IC50,CDK1 (p34 cdc2)/cyclin B,40 µM
same,IC50,"CDK2; CDK2, read-out: IC50 CDK2",23.3 µM
same,inhibition at 100 µM,CDK2,75 ± 2%
same,IC50,"CDK4 [1]; CDK4, read-out: IC50 CDK4",> 100 µM and 330 µM
